These results are taken from patent publication US11472797B2, “Pesticidally active pyrazole derivatives” (SYNGENTA PARTICIPATIONS AG, priority 2017, dated 2022).

For orientation: mortality means the percentage killed. By melting point is commonly meant the temperature of the solid-liquid transition.

Series [1] relates to Euschistus heros (Neotropical Brown Stink Bug). Put plainly: Euschistus heros soybean leaf spray test. Particulars: 120 h, application rate 200 ppm, N2 nymphs, 5 days after infestation, read-out: effect in at least one of the two categories (mortality or growth inhibition). The series is classed as in vivo. The method, then:
Euschistus heros (Neotropical Brown Stink Bug)
Soybean leaves on agar in 24-well microtiter plates were sprayed with aqueous test solutions prepared from 10,000 ppm DMSO stock solutions. After drying the leaves were infested with N2 nymphs. The samples were assessed for mortality and growth inhibition in comparison to untreated samples 5 days after infestation. The following compounds gave an effect of at least 80% in at least one of the two categories (mortality or growth inhibition) at an application rate of 200 ppm: 1

Series [2] deals with Plutella xylostella (Diamond Back Moth). Put plainly: Plutella xylostella artificial diet test. Format: in vivo. Particulars: 120 h, application rate 200 ppm, L2 larvae, 5 days after infestation, read-out: effect in at least one of the two categories (mortality or growth inhibition). The method, then:
Plutella xylostella (Diamond Back Moth):
24-well microtiter plates with artificial diet were treated with aqueous test solutions prepared from 10,000 ppm DMSO stock solutions by pipetting. After drying, the plates were infested with L2 larvae (10 to 15 per well). The samples were assessed for mortality and growth inhibition in comparison to untreated samples 5 days after infestation. The following compounds gave an effect of at least 80% in at least one of the two categories (mortality or growth inhibition) at an application rate of 200 ppm: 1, 2, 3, 4, 5, 6, 7, 8, 9, 11 and 12.

The test system of series [3] is Diabrotica Balteata, (Corn Root Worm). Put plainly: Diabrotica balteata maize sprout spray test. Particulars: 96 h, application rate 200 ppm, L2 larvae, 4 days after infestation, read-out: effect in at least one of the two categories (mortality or growth inhibition). Format: in vivo. The protocol: Diabrotica Balteata, (Corn Root Worm) Maize sprouts, placed on an agar layer in 24-well microtiter plates were treated with aqueous test solutions prepared from 10,000 ppm DMSO stock solutions by spraying. After drying, the plates were infested with L2 larvae (6 to 10 per well). The samples were assessed for mortality and growth inhibition in comparison to untreated samples 4 days after infestation. The following compounds gave an effect of at least 80% in at least one of the two categories (mortality or growth inhibition) at an application rate of 200 ppm: 1, 2, 3, 5 and 6.

Series [4] deals with Tetranychus urticae (Two-Spotted Spider Mite). Briefly: Tetranychus urticae bean leaf disc spray test. The series is classed as in vivo. To be noted: foliar, 192 h. The protocol:
Tetranychus urticae (Two-Spotted Spider Mite):
Bean leaf discs on agar in 24-well microtiter plates were sprayed with aqueous test solutions prepared from 10,000 ppm DMSO stock solutions. After drying the leaf discs were infested with a mite population of mixed ages. The samples were assessed for mortality on mixed population (mobile stages) 8 days after infestation.

Series [5] relates to Spodoptera littoralis (Egyptian Cotton Leaf Worm). Briefly: Spodoptera littoralis cotton leaf disc spray test. The series is classed as in vivo. Particulars: foliar, 72 h, application rate 200 ppm, L1 larvae, 3 days after infestation, read-out: control (at least one of mortality, anti-feedant effect, and growth inhibition). The method, then:
Spodoptera littoralis (Egyptian Cotton Leaf Worm)
Cotton leaf discs were placed on agar in 24-well microtiter plates and sprayed with aqueous test solutions prepared from 10,000 ppm DMSO stock solutions. After drying the leaf discs were infested with five L1 larvae. The samples were assessed for mortality, anti-feedant effect, and growth inhibition in comparison to untreated samples 3 days after infestation. Control of Spodoptera littoralis by a test sample is when at least one of mortality, anti-feedant effect, and growth inhibition is higher than the untreated sample.

Series [6] relates to Thrips tabaci (Onion Thrips). Briefly: Thrips tabaci sunflower leaf disc spray test. The series is classed as in vivo. Particulars: foliar, 144 h, application rate 200 ppm, population of mixed ages, 6 days after infestation. The method, then:
Thrips tabaci (Onion Thrips):
Sunflower leaf discs were placed on agar in 24-well microtiter plates and sprayed with aqueous test solutions prepared from 10,000 ppm DMSO stock solutions. After drying the leaf discs were infested with a thrips population of mixed ages. The samples were assessed for mortality 6 days after infestation.

With `Cn1nc(OC(F)(F)C(F)C(F)(F)F)c(C(F)(F)F)c1-c1cc(-c2cc(C(=O)NC3CC3)c(C#N)s2)on1` (stereo not shown) [Example 1, 2-cyano-N-cyclopropyl-5-[3-[5-(1,1,2,3,3,3-hexafluoropropoxy)-2-methyl-4-(trifluoromethyl)pyrazol-3-yl]isoxazol-5-yl]thiophene-3-carboxamide], the percent effect (mortality or growth inhibition) at 200 ppm in series [1], in series [2] and in series [3] was not below 80% each time. Besides, the mortality at 200 ppm in series [4], in series [5] and in series [6] was not below 80% in each case.
`CN(C(=O)c1cc(-c2cc(-c3c(C(F)(F)F)c(OC(F)(F)C(F)C(F)(F)F)nn3C)no2)sc1C#N)C1CC1` (stereo not shown) [Example 2, 2-cyano-N-cyclopropyl-5-[3-[5-(1,1,2,3,3,3-hexafluoropropoxy)-2-methyl-4-(trifluoromethyl)pyrazol-3-yl]isoxazol-5-yl]-N-methyl-thiophene-3-carboxamide]: the percent effect (mortality or growth inhibition) at 200 ppm in series [2] and in series [3] was not below 80% throughout. Further, the mortality at 200 ppm in series [4] and in series [6] was not below 80% throughout.
For `CCN(C(=O)c1cc(-c2cc(-c3c(C(F)(F)F)c(OC(F)(F)C(F)C(F)(F)F)nn3C)no2)sc1C#N)C1CC1` (stereo not shown) [Example 3, 2-cyano-N-cyclopropyl-N-ethyl-5-[3-[5-(1,1,2,3,3,3-hexafluoropropoxy)-2-methyl-4-(trifluoromethyl)pyrazol-3-yl]isoxazol-5-yl]thiophene-3-carboxamide], the percent effect (mortality or growth inhibition) at 200 ppm in series [2] and in series [3] was not below 80% in each case. Also, the mortality at 200 ppm in series [6] is not below 80%.
Regarding `Cn1nc(OC(F)(F)C(F)C(F)(F)F)c(C(F)(F)F)c1-c1cc(-c2cc(C(=O)NC3(C#N)CC3)c(C#N)s2)on1` (stereo not shown) [Example 4, 2-cyano-N-(1-cyanocyclopropyl)-5-[3-[5-(1,1,2,3,3,3-hexafluoropropoxy)-2-methyl-4-(trifluoromethyl)pyrazol-3-yl]isoxazol-5-yl]thiophene-3-carboxamide], the percent effect (mortality or growth inhibition) at 200 ppm in series [2] was not below 80%. The molecule further registered a mortality at 200 ppm in series [6] not below 80%.
`CN(C(=O)c1cc(-c2cc(-c3c(C(F)(F)F)c(OC(F)(F)C(F)C(F)(F)F)nn3C)no2)sc1C#N)C1(C#N)CC1` (stereo not shown) [Example 5, 2-cyano-N-(1-cyanocyclopropyl)-5-[3-[5-(1,1,2,3,3,3-hexafluoropropoxy)-2-methyl-4-(trifluoromethyl)pyrazol-3-yl]isoxazol-5-yl]-N-methyl-thiophene-3-carboxamide]: the percent effect (mortality or growth inhibition) at 200 ppm in series [2] and in series [3] was not below 80% throughout. Moreover, the mortality at 200 ppm in series [5] and in series [6] was not below 80% in each case.
On to `CCN(C(=O)c1cc(-c2cc(-c3c(C(F)(F)F)c(OC(F)(F)C(F)C(F)(F)F)nn3C)no2)sc1C#N)C1(C#N)CC1` (stereo not shown) [Example 6, 2-cyano-N-(1-cyanocyclopropyl)-N-ethyl-5-[3-[5-(1,1,2,3,3,3-hexafluoropropoxy)-2-methyl-4-(trifluoromethyl)pyrazol-3-yl]isoxazol-5-yl]thiophene-3-carboxamide], for which the percent effect (mortality or growth inhibition) at 200 ppm in series [2] and in series [3] was not below 80% each time. Moreover, the mortality at 200 ppm in series [5] and in series [6] was not below 80% in each case.
Consider `Cn1nc(OC(F)(F)C(F)C(F)(F)F)c(C(F)(F)F)c1-c1cc(-c2cc(C(=O)NC3CC3)c(Cl)s2)on1` (stereo not shown) [Example 7, 2-chloro-N-cyclopropyl-5-[3-[5-(1,1,2,3,3,3-hexafluoropropoxy)-2-methyl-4-(trifluoromethyl)pyrazol-3-yl]isoxazol-5-yl]thiophene-3-carboxamide], for which, in series [2], the percent effect (mortality or growth inhibition) at 200 ppm was not below 80%. Further, the mortality at 200 ppm in series [5] was not below 80%.
For the molecule `CN(C(=O)c1cc(-c2cc(-c3c(C(F)(F)F)c(OC(F)(F)C(F)C(F)(F)F)nn3C)no2)sc1Cl)C1CC1` (stereo not shown) [Example 8, 2-chloro-N-cyclopropyl-5-[3-[5-(1,1,2,3,3,3-hexafluoropropoxy)-2-methyl-4-(trifluoromethyl)pyrazol-3-yl]isoxazol-5-yl]-N-methyl-thiophene-3-carboxamide], in series [2], the percent effect (mortality or growth inhibition) at 200 ppm is not below 80%. In addition, in series [5], the mortality at 200 ppm is not below 80%.
As for `CCN(C(=O)c1cc(-c2cc(-c3c(C(F)(F)F)c(OC(F)(F)C(F)C(F)(F)F)nn3C)no2)sc1Cl)C1CC1` (stereo not shown) [Example 9, 2-chloro-N-cyclopropyl-N-ethyl-5-[3-[5-(1,1,2,3,3,3-hexafluoropropoxy)-2-methyl-4-(trifluoromethyl)pyrazol-3-yl]isoxazol-5-yl]thiophene-3-carboxamide], in series [2], the percent effect (mortality or growth inhibition) at 200 ppm is not below 80%. The mortality at 200 ppm in series [5] was not below 80%.
`Cn1nc(OC(F)(F)C(F)C(F)(F)F)c(C(F)(F)F)c1-c1cc(-c2cc(C(=O)NC3(C#N)CC3)c(Cl)s2)on1` (stereo not shown) [Example 10, 2-chloro-N-(1-cyanocyclopropyl)-5-[3-[5-(1,1,2,3,3,3-hexafluoropropoxy)-2-methyl-4-(trifluoromethyl)pyrazol-3-yl]isoxazol-5-yl]thiophene-3-carboxamide] yielded a melting point of 218 to 219 °C.
With `CN(C(=O)c1cc(-c2cc(-c3c(C(F)(F)F)c(OC(F)(F)C(F)C(F)(F)F)nn3C)no2)sc1Cl)C1(C#N)CC1` (stereo not shown) [Example 11, 2-chloro-N-(1-cyanocyclopropyl)-5-[3-[5-(1,1,2,3,3,3-hexafluoropropoxy)-2-methyl-4-(trifluoromethyl)pyrazol-3-yl]isoxazol-5-yl]-N-methyl-thiophene-3-carboxamide], the percent effect (mortality or growth inhibition) at 200 ppm in series [2] is not below 80%. In series [5], the mortality at 200 ppm is not below 80%.
With `CCN(C(=O)c1cc(-c2cc(-c3c(C(F)(F)F)c(OC(F)(F)C(F)C(F)(F)F)nn3C)no2)sc1Cl)C1(C#N)CC1` (stereo not shown) [Example 12, 2-chloro-N-(1-cyanocyclopropyl)-N-ethyl-5-[3-[5-(1,1,2,3,3,3-hexafluoropropoxy)-2-methyl-4-(trifluoromethyl)pyrazol-3-yl]isoxazol-5-yl]thiophene-3-carboxamide], the percent effect (mortality or growth inhibition) at 200 ppm in series [2] was not below 80%. Further, in series [5], the mortality at 200 ppm was not below 80%.
